# Source: US9700042B2, “Nanoformulation of musk-derived bioactive ingredients for nanocosmetic applications” (priority 2014, dated 2017)
# Tested on: tested microorganisms fungi and bacteria
# Assay: Anti-microbial activities (disc diffusion, all test organisms)
# Type: cell-based
# Details: filter paper discs
# Description: Pathogenic Fungi: Aspergillus niger, Aspergillus fumigatus, Aspergillus flavus, Fusarium oxysporum and Candida albicans were cultured on sabaroud dextrous agar media (Oxioid CM 41) at 25° C.
# Pathogenic bacteria: Staphylococcus aureus and Pseudomonas aeroginosa were cultured on Mueller Hinton media (Oxioid CM 41) at 37° C.
# Biological activity: Antimicrobial activities of the 3-hydroxyl p-Anisaldehyde (C8H8O3) and p-Hydroxy-acetophenone (C8H8O2) compounds were tested against the fungal species Aspergillus niger, Aspergillus fumigatus, Aspergillus flavus, Fusarium oxysporum and Candida albicans. […]
# Antifungal activities: The agar disc diffusion method was used to evaluate the antifungal activities of the tested compounds (Bauer, A.W., et al., Antibiotic susceptibility testing by a standard single disk diffusion method, Amer. J. Clin. Pathol. 45:493-496 (1966)). […] The diameter of the inhibition zones were measured in millimeters after 4 days at 25±2° C. […]
# Antibacterial activities: Antibacterial activities of the tested compounds were employed by used the agar disc diffusion method Hasenekoglu (1990). Suspension of the tested bacteria (10^6 CFU/μl ,O.D was measured calorimetry using spectrophotometer (Spectro, labomed, Inc.) at […]) were spread on Mueller Hinton Agar (Oxioid). […] The diameter of the inhibition zones were measured in millimeters after 24 h at 37° C. […]
compound,measurement,value
CC(=O)c1ccc(O)cc1 [p-Hydroxyacetophenone],Inhibition of growth of tested microorganisms (clear zones around discs),have the ability to inhibit the growth
